Measured values as given in patent publication US4977155A, “1,2,3-triazolo compounds” (priority 1988, dated 1990).
≈ marks a conversion by molar mass, not a printed value. Like-named read-outs stand apart in the source and are kept apart here.

Key:
[1] = test system: N-methyl-D-aspartate (NMDA) receptors; settings: cited from earlier work
kainate receptors = settings: in words, background; cited from earlier work
Quisqualate receptors = settings: in words, background; cited from earlier work
[2] = target: quisqualate type receptors; test: 3H-AMPA binding (Test 1); settings: rat cerebral cortical membrane homogenate; 5 nM 3H-AMPA; 0° C., 30 min, pH 7.1
Description: The quisqualate receptor binding activity of the compounds of the present invention can be illustrated by determining their capability for displacing radioactively labelled 2-amino-3-hydroxy-5-methyl-4-isoxazolepropionic acid (AMPA) from the quisqualate type receptors.
The displacement activity of the compounds may be shown by determining the IC50 value which represents the concentration (μg/ml) which causes a displacement of 50% of the specific binding of ^3 H-AMPA.
^3 H-AMPA binding (Test 1)
500 μl of thawed rat cerebral cortical membrane homogenate in Tris-HCl (30 mM), CaCl2 (2.5 mM) and KSCN (100 mM) pH 7.1 were incubated at 0° C. for 30 min. with 25 μl ^3 H-AMPA (5 nM final concentration) and the test compound and buffer. Non-specific binding was determined by incubation with L-glutamic acid (600 μM final concentration). The binding reaction was terminated by adding 5 ml of ice-cold buffer followed by filtration through Whatman GF/C glass fibre filters and 2×5 ml wash with ice-cold buffer. Bound radioactivity was measured by scintillation counting. IC50 was determined by Hill analysis of at least four concentrations of test compound.

[3] = test system: NMDA stimulated ^3 H-GABA release from cultured mouse cortex neurons; test: Inhibition of NMDA stimulated 3H-GABA release from cultured mouse cerebral cortex interneurons (Test 3); format: cell-based; settings: Neuron, 3 μg/ml NMDA, read-out: Test 3 IC50 (inhibits 50% of NMDA induced 3H-GABA release)
Description: The NMDA antagonistic properties of the compounds is illustrated by determining their capability to antagonize NMDA stimulated ^3 H-GABA release from cultured mouse cortex neurons.
The NMDA antagonistic activity of the compounds may be shown by determining the IC50 value, which represents the concentration (μg/ml) which inhibits 50% of NMDA induced ^3 H-GABA release.
Inhibition of NMDA stimulated ^3 H-GABA release from cultured mouse cerebral cortex interneurons (Test 3) Release experiments are performed using the model described by Drejer et al. (Life Sci. 38, 2077 (1986)). To cerebral cortex interneurons cultured in petri dishes (30 mm) are added 100 μg/ml 3-vinyl-GABA one hour before the experiment in order to inhibit degradation of GABA in the neurons. 30 min before the experiment 5 μCi ^3 H-GABA is added to each culture and after this preloading period the cells are washed twice with a HEPES (N-2 Hydroxyethylpiperazine-N'-2-ethanesulfonic acid) buffered saline (HBS) containing 10 mM HEPES, 135 mM NaCl, 5 mM KCl, 0.6 mM MgSO4, 1.0 mM CaCl2 and 6 mM D-glucose; pH 7 and placed in a superfusion system. This system consists of a peristaltic pump continuously delivering thermostated 37° C. superfusion medium from a reservoir to the top of a slightly-tilted petri dish. The cell monolayer at the bottom of the dish is covered with a piece of nylon mesh to facilitate dispersion of medium over the cell layer. The medium is continuously collected from the lower part of the dish and delivered to a fraction collector. Initially, the cells are superfused with HBS for 15 min (flow rate 2 ml/min). Then cells are stimulated for 30 sec every 4 min by changing the superfusion medium from HBS to a corresponding medium containing NMDA and antagonists according to the following scheme: […]
stimulation no. 1: 3 μg/ml NMDA stimulation no. 2: 3 μg/ml NMDA+0.3 μg/ml antagonist stimulation no. 3: 3 μg/ml NMDA+3 μg/ml antagonist
Test substances are dissolved in water or 48% ethanol. The final ethanol concentration in the assay must not exceed 0.1%.
The release of ^3 H-GABA in the presence of NMDA (stimulated relase in cpm) are corrected for the mean basal release (cpm) before and after the stimulation.
The stimulated release in the presence of antagonists are expressed relative to the stimulated release by NMDA alone and the IC50 value for the antagonist is calculated (the concentration (μg/ml) of the test substance which inhibits 50% of the NMDA induced ^3 H-GABA release) either from a dose response curve or from the formula: [formula] where Co is stimulated release in control assays and Cx is the stimulated release in the test assay (the calculation assumes normal mass-action interaction). 25-75% inhibition of the NMDA stimulation must be obtained, before calculation of IC50.

[4] = test system: quisqualic acid stimulated Na^+ -efflux from rat striatal slices; test: Antagonism of quisqualic acid induced 22Na+ release (Test 2); format: cell-based; settings: rat striatum slices; quisqualic acid 2 μg/ml; read-out: Test 2 EC50 (reduces rate of quisqualic acid stimulated sodium efflux by 50%)
Procedure: The quisqualate antagonism is measured by determining the EC50 value which represents the concentration which reduces the rate of quisqualic acid stimulated sodium efflux by 50%.
Antagonism of quisqualic acid induced ^22 Na^+ -release (Test 2)
Slices from rat striatum were preincubated with ^22 Na^+ for 30 min. After the ^22 Na^+ loading period, the slices were successively and every minute transferred through a series of tubes, each containing 1.5 ml of a non-radioactive physiological solution saturated with O2, with the help of a basket shaped sieve. Quisqualic acid (2 μg/ml) was present in the last 5 tubes and the compound to be tested was present in the same 5 tubes plus 3 tubes before. The amount of radioactivity in each washout tube as well as that left in the slices at the end of the experiment was measured by scintillation counting. EC50 were calculated by Hill analysis from at least three different concentrations of test compound as the concentration of test compound which reduces the efflux rate of ^22 Na^+ -ions to 50% of the efflux rate in the absence of test compound.

SMILES | Test 1 IC50 (displacement of 50% of the specific binding of 3H-AMPA) [2] | IC50 [3] [µg/mL] | further results
O=C(O)[C@@H]1CCCN[C@H]1C(=O)O (relative stereo) [trans-2,3-PDA, trans-2,3-piperidine dicarboxylic acid] | – | – | agonist activity on NMDA receptors ([1]; in words, background): strong to moderate agonist activity
N[C@@H](CCC(=O)NCC(=O)O)C(=O)O [3-glutamyl-glycine] | – | – | selectivity for kainate receptors (kainate receptors): some selectivity for kainate receptors
Cc1onc(O)c1CC(N)C(=O)O (stereo not drawn) [AMPA, 2-amino-3-hydroxy-5-methyl-4-isoxazolepropionic acid] | – | – | agonist activity on quisqualate receptors (Quisqualate receptors): potent agonists
N[C@H](CCCC(=O)O)C(=O)O [D-2-amino-adipic acid] | – | – | antagonist activity on NMDA receptors ([1]; in words, background): moderate antagonist activity
N[C@H](CCCCCP(=O)(O)O)C(=O)O [D-APH, 2-amino-7-phosphonoheptanoic acid] | – | – | antagonist activity on NMDA receptors ([1]; in words, background): most potent and selective antagonists
N[C@H](CCCP(=O)(O)O)C(=O)O [D-APV, 2-amino-5-phosphono-valeric acid] | – | – | antagonist activity on NMDA receptors ([1]; in words, background): most potent and selective antagonists
N[C@H](CCC(=O)O)C(=O)O [D-glutamic acid] | – | – | agonist activity on NMDA receptors [1]: strong to moderate agonist activity
Oc1nc2ccc3nn[nH]c3c2nc1O [Ex 1, 7,8 Dihydroxy-1H-1,2,3-triazolo[4,5-f]quinoxaline] | 13,3 μg/ml | – | –
O=[N+]([O-])c1cc2nc(O)c(O)nc2c2[nH]nnc12 [Ex 2, 7,8-Dihydroxy-4-nitro-1H-1,2,3-triazolo[4,5-f]quinoxaline] | 0,85 μg/ml | 0.26 (≈ 1.05 µM) | EC50 [4]: 10 µg/mL (≈ 40.3 µM)
N#Cc1cc2nc(O)c(O)nc2c2[nH]nnc12 [Ex 4, 4-Cyano-7,8-dihydroxy-1H-1,2,3-triazolo[4,5-f]quinoxaline] | 10 µg/mL | – | –
Cn1nnc2c([N+](=O)[O-])cc3nc(O)c(O)nc3c21 [Ex 6, 7,8-Dihydroxy-1-methyl-4-nitro-1H-1,2,3-triazolo[4,5-f]quinoxaline] | 0,31 μg/ml | 0.096 (≈ 0.366 µM) | EC50 [4]: 4.1 µg/mL (≈ 15.6 µM)
O=[N+]([O-])c1cc2nc(O)c(O)nc2c2[nH]ncc12 [Ex 9, 7,8-Dihydroxy-4-nitro-1H-pyrazolo[3,4-f]quinoxaline] | 0,41 μg/ml | 0.14 (≈ 0.566 µM) | –
Cn1nc2c([N+](=O)[O-])cc3nc(O)c(O)nc3c2n1 [Ex 11, 7,8-Dihydroxy-2-methyl-4-nitro-2H-1,2,3-triazolo[4,5-f]quinoxaline] | 0,36 μg/ml | 0.14 (≈ 0.534 µM) | –
Cn1nnc2c3nc(O)c(O)nc3cc([N+](=O)[O-])c21 [Ex 13, 7,8-Dihydroxy-3-methyl-4-nitro-3H-1,2,3-triazolo[4,5-f]quinoxaline] | 0,07 μg/ml | 0.11 (≈ 0.42 µM) | –
Cn1nnc2c3nc(O)c(O)nc3cc(C#N)c21 [Ex 15, 4-Cyano-7,8-dihydroxy-3-methyl-3H-1,2,3-triazolo[4,5-f]quinoxaline] | 0,19 μg/ml | 0.73 (≈ 3.01 µM) | –
O=[N+]([O-])c1cc2nc(O)c(O)nc2c2scnc12 [Ex 17, 7,8-Dihydroxy-4-nitrothiazolo[5,4-f]quinoxaline] | 0,21 μg/ml | – | –
O=[N+]([O-])c1cc2nc(O)c(O)nc2c2nonc12 [Ex 24, 7,8-Dihydroxy-4-nitro-l,2,5-oxadiazolo(3,4-f)quinoxaline] | 0,23 μg/ml | 0.13 (≈ 0.522 µM) | –
O=[N+]([O-])c1cc2nc(O)c(O)nc2c2nccnc12 [Ex 35, 2,3-Dihydroxy-6-nitropyrazino(2,3-f)quinoxaline] | 0,39 μg/ml | 0.1 (≈ 0.386 µM) | –
Cc1nc2c([N+](=O)[O-])cc3nc(O)c(O)nc3c2nc1C [Ex 36, 2,3-Dihydroxy-8,9-dimethyl-6-nitropyrazino(2,3-f)quinoxaline] | 0,39 μg/ml | 0.14 (≈ 0.487 µM) | –
O=[N+]([O-])c1cc2nc(O)c(O)nc2c2nsnc12 [Ex 38, 7,8-Dihydroxy-4-nitro-1,2,5-thiadiazolo(3,4-f)quinoxaline] | 0,13 μg/ml | 0.09 (≈ 0.339 µM) | –
Oc1nc2ccc3sccc3c2nc1O [Ex 39, 2,3-Dihydroxythieno[3,2-f]quinoxaline] | 1,9 μg/ml | – | –
CCOC(=O)CC[C@H](N)C(=O)OCC [GDEE, Glutamic acid diethyl ester] | – | – | antagonist activity on quisqualate receptors (Quisqualate receptors): selective but very weak antagonist
N[C@H](C(=O)O)c1cc(=O)[nH]o1 [Ibotenic acid] | – | – | agonist activity on NMDA receptors ([1]; in words, background): strong to moderate agonist activity
N[C@@H](CCC(=O)O)C(=O)O [L-glutamic acid] | – | – | agonist activity on quisqualate receptors (Quisqualate receptors): potent agonists
N[C@@H](CCS(=O)(=O)O)C(=O)O [L-homocysteic acid] | – | – | agonist activity on NMDA receptors ([1]; in words, background): strong to moderate agonist activity
N[C@H](CCC[C@H](N)C(=O)O)C(=O)O [diaminopimelic acid] | – | – | antagonist activity on NMDA receptors ([1]; in words, background): moderate antagonist activity
N[C@@H](Cn1oc(=O)[nH]c1=O)C(=O)O [quisqualic acid] | – | – | agonist activity on quisqualate receptors (Quisqualate receptors): activated selectively
